From patent US20110269231A1, “PROTEOGLYCAN-BINDING PEPTIDES THAT MODULATE STEM CELL BEHAVIOR” (WISCONSIN ALUMNI RESEARCH FOUNDATION, priority 2010, published 2011)
Square brackets hold non-standard residues; d marks the D form. Ends that are not written are not given here. Gla = N[C@@H](CC(C(=O)O)C(=O)O)C(=O)O

Columns and labels:
hMSCs [1] = experiment: hMSC proliferation on KRTGQYKL-SAMs in the presence of FBS and PD 173074; type: cell-based, human; details: 200 nM PD 173074, 10% FBS; FIG. 11
Method: Proliferation of hMSCs cultured on KRTGQYKL-SAMs in medium supplemented with FBS and PD 173074 was determined PD 173074 is a soluble inhibitor of FGF-2 and FGF-4 cognate receptors FGF receptor-1 and -3. hMSCs were cultured on SAMs presenting 2% RGDSP (SEQ ID NO: 8) and either 2% KRTGQYL (SEQ ID NO: 1) or TYRKKGLQ (SEQ ID NO: 9) in medium supplemented with 200 nM PD 173074 and 10% FBS.
hMSCs were expanded at low density on tissue culture treated polystyrene plates using the method described previously by Sotiropoulou et al. to maintain […] (Sotiropoulou et al., “Characterization of the optimal culture conditions for clinical scale production of human mesenchymal stem cells,” Stem Cells, 24:462 (2006)). At passage 6, cells were harvested from the plate, suspended in medium supplemented with 10% fetal bovine serum, and counted using a hemacytometer. Cells were collected as a pellet by centrifugation at 1100 rpm for 5 minutes, the media was decanted off of the pellet, and the cells were suspended in αMEM supplemented with 10% FBS at a density of 20,000 cells/250 μL. […] The total number of cells per viewing area was counted manually for 3 samples per condition.

[2] = test system: human umbilical vein endothelial cells (HUVECs); experiment: HUVEC proliferation versus KRTGQYKL surface density and FGF-2 concentration; type: cell-based; details: 2% RGDSP, 10% FBS
Method: Human umbilical vein endothelial cells (HUVECs) as a model cell type were used to investigate the correlation between the surface density of bound heparin PGs, the concentration of soluble FGF-2, and the extent of up-regulation of FGF-mediated cell proliferation.
HUVECs were cultured according to the protocol supplied by the manufacturer. Sub-confluent cells were harvested from the plate, suspended in M199 supplemented with 10% FBS, and counted using a hemacytometer. Cells were collected as a pellet by centrifugation at 1100 rpm for 5 minutes, the media was decanted off of the pellet, and the cells were suspended in fresh serum-supplemented M199 at a density of 20,000 cells/250 μL. SAMs presenting 2% RGDSP (SEQ ID NO: 8) and various densities of KRTGQYKL (SEQ ID NO: 1) were prepared by incubating NHS-activated SAMs in 1× PBS solutions containing 125 μM RGDSP (SEQ ID NO: 8), and various molar ratios of KRTGQYKL (SEQ ID NO: 1) and TYRKKGLQ (SEQ ID NO: 9) at a total concentration of 125 μM Immediately after peptide conjugation, HUVECs were seeded on the SAM substrates at a density of 10,000 cells/cm^2 in M199 supplemented with 10% FBS. […] Brightfield photomicrographs (40× mag) of each substrate were collected on an Olympus IX51 inverted epifluorescent microscope at t=0, 24, 48, and 72 hrs, and the total number of cells per viewing area was counted manually.

hMSCs [3] = experiment: hMSC adhesion on RGESP- and RGDSP-presenting SAMs; type: cell-based, human; details: for hMSC attachment (number per unit area): RGDSP=0.0001, 0.001 or 0.01 vs RGESP alone, 12 hrs attachment
Method: (§1) To maintain multipotency, hMSCs were expanded at low density on tissue culture treated polystyrene plates. At passage 6, cells were harvested from the plate, suspended in medium supplemented with 10% fetal bovine serum, and counted using a hemacytometer. Cells were collected as a pellet by centrifugation at 1100 rpm for 5 minutes, the media was decanted off of the pellet, and the cells were suspended in fresh αMEM at a density of 20,000 cells/250 μL. SAM preparation and peptide conjugation were performed using the protocols described above Immediately after peptide conjugation, SAMs were placed into 1 mL of 1× PBS (pH 7.4) in a 12-well tissue culture plate to prevent degradation of the monolayer due to air oxidation. PBS was aspirated from the wells and replaced with 1.25 mL of αMEM, followed by addition of 250 μL of the cell suspension directly over the SAM substrate in each well. Plates were then gently rocked for 10 seconds to evenly distribute cells over the substrate surface. Substrates were then incubated for a specified time frame (12 hrs for RGESP/RGDSP SAMs, 4 hrs for RGDSP/TYRSRKY SAM in a humid environment at 37° C., 5% CO2 to allow hMSC attachment. At the end of the attachment period, the hMSC growth media was aspirated from the well and the substrates were gently washed with sterile 1× PBS to remove any loosely bound cells. The 1× PBS solution was then replaced with fresh medium. Brightfield photomicrographs of cells were then collected using an Olympus IX51 inverted microscope.
(§2) hMSCs were seeded on the SAMs as described previously. After washing away loosely bound cells using 1× PBS, cytoskeletal immunostaining of hMSCs was performed by following the protocol supplied by the manufacturer. Briefly, a 4% paraformaldehyde solution in 1× PBS was added to the wells for 15 minutes to fix the cells, followed by a 5 minute incubation in a 1× PBS solution containing 0.05% Tween-20 to permeabilize the cells. […] After blocking, a 1× PBS solution containing an anti-Vinculin primary antibody was added to each well and allowed to incubate at room temperature for 60 minutes. The wells were then washed gently three times using a 1× PBS solution containing 0.1 wt % bovine serum albumin. Immediately after washing, a 1× PBS solution containing a fluorescein-tagged […] secondary antibody and a TRITC-tagged anti-Phalloidin antibody was added to each well and allowed to incubate at room temperature for 45 minutes. Substrates were then washed using the method described previously. Cytoskeletal staining was analyzed using an Olympus IX51 inverted epifluorescent microscope equipped with FITC and TRITC filter cube sets.

[4] = Binding of synthetic KRT peptide to hydroxyapatite (micro-BCA depletion); details: 50 μM peptide, 1 mg hydroxyapatite, 30 minutes at 37° C.
Method: A 50 μM peptide solution containing the synthetic KRT peptide, KRTGQYKLGGGAAAA(Gla)PRR(Gla)VA(Gla)L (SEQ ID NO: 12), was incubated with 1 mg of hydroxyapatite particles for 30 minutes at 37° C. After incubation, the concentration of peptide in solution was determined using a micro-BCA assay (Pierce) as a measure of the depletion of the peptide from solution due to hydroxyapatite binding.

hMSCs [5] = experiment: hMSC projected cell area on SAMs presenting RGDSP and TYRSRKY; type: cell-based, human
Method: as §1, §2

[6] = biological target: T1, alpha-5 beta-1 integrins (on human mesenchymal stem cells) (human, UniProt P08648 42-1049; P05556 21-798); experiment: hMSCs cultured on RGDSP-presenting SAMs in osteogenic induction medium (cell area, cell number, alkaline phosphatase)
T1 construct: whole, on cells; Endogenous integrin on hMSCs; also called hMSC integrin receptors
T1 sequence (P08648 42-1049, chain 1 of 2): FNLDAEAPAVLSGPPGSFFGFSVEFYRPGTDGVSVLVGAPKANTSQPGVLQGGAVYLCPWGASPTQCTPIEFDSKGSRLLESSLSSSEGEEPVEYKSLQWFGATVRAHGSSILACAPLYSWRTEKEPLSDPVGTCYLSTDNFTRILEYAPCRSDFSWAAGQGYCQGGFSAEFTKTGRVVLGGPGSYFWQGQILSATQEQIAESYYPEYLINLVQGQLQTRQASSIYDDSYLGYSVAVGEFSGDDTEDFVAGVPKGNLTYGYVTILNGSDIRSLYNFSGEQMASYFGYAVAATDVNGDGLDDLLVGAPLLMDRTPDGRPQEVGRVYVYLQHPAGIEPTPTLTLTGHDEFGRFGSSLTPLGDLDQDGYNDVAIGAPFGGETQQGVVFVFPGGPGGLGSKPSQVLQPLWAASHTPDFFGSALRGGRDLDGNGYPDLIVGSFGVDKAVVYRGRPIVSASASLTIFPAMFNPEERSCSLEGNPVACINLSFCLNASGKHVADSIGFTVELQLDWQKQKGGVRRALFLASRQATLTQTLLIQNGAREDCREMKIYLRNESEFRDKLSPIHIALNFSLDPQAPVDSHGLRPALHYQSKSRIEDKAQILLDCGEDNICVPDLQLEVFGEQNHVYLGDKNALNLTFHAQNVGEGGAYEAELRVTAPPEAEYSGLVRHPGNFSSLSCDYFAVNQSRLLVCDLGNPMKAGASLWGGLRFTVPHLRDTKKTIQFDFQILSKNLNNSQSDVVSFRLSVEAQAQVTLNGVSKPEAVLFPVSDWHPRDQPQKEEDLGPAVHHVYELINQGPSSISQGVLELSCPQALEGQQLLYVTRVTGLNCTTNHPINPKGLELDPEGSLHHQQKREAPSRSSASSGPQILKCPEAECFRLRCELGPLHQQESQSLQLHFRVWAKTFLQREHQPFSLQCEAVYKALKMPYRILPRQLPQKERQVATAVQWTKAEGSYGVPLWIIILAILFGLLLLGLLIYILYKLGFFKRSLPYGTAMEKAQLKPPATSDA
T1 sequence (P05556 21-798, chain 2 of 2): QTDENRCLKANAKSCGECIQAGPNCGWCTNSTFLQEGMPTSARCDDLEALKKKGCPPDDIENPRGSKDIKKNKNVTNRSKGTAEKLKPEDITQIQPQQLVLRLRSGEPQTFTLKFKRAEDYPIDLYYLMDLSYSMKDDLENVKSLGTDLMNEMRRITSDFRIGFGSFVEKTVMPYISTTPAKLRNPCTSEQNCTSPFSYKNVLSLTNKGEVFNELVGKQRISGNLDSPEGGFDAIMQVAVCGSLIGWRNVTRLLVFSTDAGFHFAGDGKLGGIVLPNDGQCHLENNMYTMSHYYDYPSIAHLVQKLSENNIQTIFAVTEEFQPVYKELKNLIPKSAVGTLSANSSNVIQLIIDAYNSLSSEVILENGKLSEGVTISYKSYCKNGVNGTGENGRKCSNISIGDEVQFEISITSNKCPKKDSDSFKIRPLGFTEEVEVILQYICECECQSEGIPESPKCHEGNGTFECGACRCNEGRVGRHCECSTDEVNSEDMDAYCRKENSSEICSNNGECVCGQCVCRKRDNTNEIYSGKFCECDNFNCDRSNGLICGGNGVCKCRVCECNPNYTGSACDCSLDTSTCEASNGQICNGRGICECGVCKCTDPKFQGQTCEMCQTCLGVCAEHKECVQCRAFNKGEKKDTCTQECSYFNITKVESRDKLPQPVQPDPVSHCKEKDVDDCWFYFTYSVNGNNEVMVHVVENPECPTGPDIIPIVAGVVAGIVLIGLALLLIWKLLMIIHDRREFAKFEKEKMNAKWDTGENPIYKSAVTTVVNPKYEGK
Method: SAMs were prepared as previously described. Low passage number hMSCs were harvested from polystyrene plates and seeded on SAMs presenting RGDSP (SEQ ID NO: 8), RGDSP(SEQ ID NO: 8)/[…](SEQ ID NO: 1), or RGDSP(SEQ ID NO: 8)/TYRSRKY(SEQ ID NO: 2), at specified surface densities at a cell density of 2500 cells/cm². Cells were cultured in αMEM basal medium supplemented with 10% FBS, 50 μg/mL 2-phosphate ascorbic acid, 10 mM β-glycerophosphate, and 100 nM dexamethasone for 7 days. Brightfield images of cells were collected to measure cell projected area and quantification of cell number as a function of time. At the end of the 7-day culture period, alkaline phosphatase activity was analyzed using the SensoLyte FDP alkaline phosphatase assay kid (Anaspec, Fremont, Calif.).

recombinant human FGF-2 = biological target: T2, recombinant human FGF-2 (human, UniProt P09038 135-288, limits assumed); experiment: PM-IRRAS of 1% KRTGQYKL-SAMs after 20 min in 1x PBS with FGF-2
T2 construct: also called rhFGF-2; fibroblast growth factor-2
T2 sequence (P09038 135-288 limits assumed): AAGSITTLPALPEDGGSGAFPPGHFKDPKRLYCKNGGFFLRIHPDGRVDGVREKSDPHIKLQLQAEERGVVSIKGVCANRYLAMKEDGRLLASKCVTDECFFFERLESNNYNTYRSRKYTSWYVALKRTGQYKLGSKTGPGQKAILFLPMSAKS
Method: PM-IRRAS was used to characterize FGF-2 binding onto […]-SAMs. 1% […] SAMs were incubated in a lx PBS solution (pH 7.4) containing 10 μg/mL recombinant human FGF-2 for 20 minutes and analyzed using PM-IRRAS.

Molecule: CCN(CC)CCCCNc1ncc2cc(-c3cc(OC)cc(OC)c3)c(NC(=O)NC(C)(C)C)nc2n1 [PD 173074]
- increased proliferation of hMSCs on KRTGQYKL SAMs (hMSCs [1]): completely abolished

Molecule: KRTGQYKL
- HUVEC number ([2]; surface density of 2% KRTGQYKL, 1 ng/mL FGF-2): significant increase
- HUVEC number ([2]; surface density of KRTGQYKL>0.1%, 5 ng/mL FGF-2, by 72 hours): significant increase

Molecule: RGESP (not fully specified (C-terminus)) [amine-terminated peptide co-immobilized with RGDSP on SAMs, reference compound]
- influence of co-immobilized peptide on RGDSP-dependent hMSC adhesion (hMSCs [3]): did not influence RGDSP-dependent hMSC adhesion
- hMSC attachment (number per unit area) (hMSCs [3]): absent

Molecule: KRTGQYKLGGGAAAA(Gla)PRR(Gla)VA(Gla)L (KRTGQYKLGGGAAAA[Gla]PRR[Gla]VA[Gla]L; not fully specified (C-terminus); printed as KRTGQYKLGGGAAAA(Gla)PRR(Gla)VA(Gla)L) [KRT peptide]
- peptide bound by hydroxyapatite particles [4]: 66.08 nmol/m^2

Molecule: RGDSP
- number of focal adhesion complexes versus RGDSP surface density (hMSCs [3]; FIGS. 36 and 38): direct correlation
- hMSC attachment (number per unit area) (hMSCs [3]): significant number of hMSCs were present
- hMSC morphology (hMSCs [3]; higher RGDSP densities (RGDSP=0.001 or 0.01)): more well-spread morphology
- hMSC morphology (hMSCs [3]; low density of RGDSP (RGDSP=0.0001)): polarized, spindle-shaped morphology

Molecule: TYRSRKY
- hMSC morphology (projected cell area) (hMSCs [5]; 0.1% RGDSP, 0.1-1% TYRSRKY, 10% FBS): rounded morphology
- hMSC morphology (projected cell area) (hMSCs [5]; 0.1% RGDSP, high TYRSRKY density, absence of serum): well-spread morphology
- hMSC morphology (projected cell area) (hMSCs [5]; 0.1% RGDSP, low TYRSRKY surface density, absence of serum): rounded hMSCs morphology
- hMSC morphology (projected cell area) (hMSCs [5]; 1.0% RGDSP, 0.1-1.0% TYRSRKY, absence of serum): well-spread hMSC morphology
- hMSC spreading (hMSCs [5]; 1.0% RGDSP, TYRSRKY>0.5%, 10% FBS): decrease in hMSC spreading
- hMSC morphology (projected cell area) (hMSCs [5]; SAMs presenting 0.1-1.0% TYRSRKY, no RGDSP, presence or absence of serum): rounded morphology

B1: RGDSP cell adhesion (integrin-binding) peptide (SEQ ID NO: 8), immobilized on a self-assembled monolayer (peptide)
peptide: RGDSP-NH2
modifications: also: immobilized on SAM on gold
notes: Made by Fmoc solid phase synthesis on Rink amide MBHA resin and conjugated to a SAM on gold; also called RGDSP SAMs; cell-adhesion peptide
- binding result [6]: binds

B2: KRTGQYKL synthetic heparin-binding peptide (SEQ ID NO: 1), immobilized on a self-assembled monolayer (peptide)
peptide: KRTGQYKL-NH2
modifications: also: immobilized on oligo(ethylene glycol) alkanethiolate SAM on gold
notes: Made by Fmoc solid phase synthesis on Rink amide MBHA resin
- binding result (recombinant human FGF-2): no binding (tested: 10 µg/mL recombinant human FGF-2)
